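Where inhibition never reached the appropriate level, the endpoint shown equals the highest concentration tested. Otherwise, values were interpolated linearly from a five-concentration, 48-hour dose response in 96-well plates. GI50 = concentration required for 50% inhibition of growth. TGI is the concentration that stops growth completely.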
Assays:
Test in all cases: inhibition of tumour cell growth, NCI panel, 48 h; in the data active means GI50 below about 0.43 µM; inactive means the rest
[1] = system: EKVX NSCLC
[2] = system: DU-145 prostate
[3] = system: SK-MEL-5 melanoma
[4] = system: IGROV1 ovarian
[5] = system: SK-OV-3 ovarian
[6] = system: MALME-3M melanoma
[7] = system: NCI-H460 lung
[8] = system: UACC-62 melanoma
[9] = system: HOP-62 NSCLC
[10] = system: SNB-19 CNS
[11] = system: T-47D breast
[12] = system: MOLT-4 leukemia
[13] = system: NCI-H522 lung
[14] = system: HOP-92 NSCLC
[15] = system: PC-3 prostate
[16] = system: NCI-H226 lung
[17] = system: HCT-116 colon
[18] = system: TK-10 renal
[19] = system: RPMI-8226 leukemia
[20] = system: COLO 205 colon
[21] = system: SF-295 CNS
[22] = system: SN12C renal
[23] = system: OVCAR-8 ovarian
[24] = system: HCC-2998 colon
[25] = system: SF-539 CNS
[26] = system: HT29 colon
[27] = system: SW-620 colon
[28] = system: OVCAR-3 ovarian
[29] = system: M14 melanoma
[30] = system: CAKI-1 renal
[31] = system: MCF7 breast
[32] = system: LOX IMVI melanoma
[33] = system: SK-MEL-28 melanoma
[34] = system: UO-31 renal
[35] = system: RXF 393 renal
[36] = system: SNB-75 CNS
[37] = system: NCI/ADR-RES ovarian
[38] = system: 786-0 renal
[39] = system: UACC-257 melanoma
[40] = system: MDA-MB-435
[41] = system: OVCAR-5 ovarian
[42] = system: HCT-15 colon
[43] = system: OVCAR-4 ovarian
[44] = system: KM12 colon
[45] = system: U251 CNS
[46] = system: K-562 leukemia
[47] = system: A498 renal
[48] = system: HS 578T breast
[49] = system: ACHN renal
[50] = system: SK-MEL-2 melanoma
[51] = system: HL-60(TB) leukemia
[52] = system: NCI-H23 lung
[53] = system: CCRF-CEM leukemia
[54] = system: SF-268 CNS
[55] = system: MDA-MB-231 breast
[56] = system: A549 NSCLC
[57] = system: SR leukemia

CC(NCCC(=O)N(CCC(=O)N(CCC(=O)N(CCC(=O)N(CCC(=O)N(CCC(=O)N(CCC(=O)N(CCC(=O)N(CCC(=O)N(CCC(=O)O)[C@H](C)c1ccccc1)[C@H](C)c1ccccc1)[C@H](C)c1ccccc1)[C@H](C)c1ccccc1)[C@H](C)c1ccccc1)[C@H](C)c1ccccc1)[C@H](C)c1ccccc1)[C@H](C)c1ccccc1)[C@H](C)c1ccccc1)c1ccccc1 (stereo partly drawn)
19.1 µM: TGI [28]
> 38.7 µM: TGI [54]
2.83 µM: TGI [20]
> 19.5 µM: TGI [53]
> 19.9 µM: TGI [17]
12.3 µM: TGI [2]
2.34 µM: TGI [14]
3.63 µM: TGI [33]
inactive: GI50 [1] 3.73 µM | GI50 [2] 2.34 µM | GI50 [3] 1.16 µM | GI50 [4] 0.872 µM | GI50 [5] 10.6 µM | GI50 [6] 2.04 µM | GI50 [7] 2.05 µM | GI50 [8] 1.32 µM | GI50 [9] 1.99 µM | GI50 [10] > 19.1 µM | GI50 [11] 3.42 µM | GI50 [12] 1.61 µM | GI50 [13] 2.12 µM | GI50 [14] 0.753 µM | GI50 [15] 2.66 µM | GI50 [16] 3.62 µM | GI50 [17] 1.95 µM | GI50 [18] 3.38 µM | GI50 [19] 1.1 µM | GI50 [20] 1.43 µM | GI50 [21] 1.92 µM | GI50 [22] 3.66 µM | GI50 [23] 3.45 µM | GI50 [24] 1.38 µM | GI50 [25] 1.49 µM | GI50 [26] 1.6 µM | GI50 [27] 2.91 µM | GI50 [28] 2.04 µM | GI50 [29] 1.77 µM | GI50 [30] 3.49 µM | GI50 [31] 2.03 µM | GI50 [32] 1.17 µM | GI50 [33] 1.5 µM | GI50 [34] 3.55 µM | GI50 [35] 1.47 µM | GI50 [36] 2.2 µM | GI50 [37] > 75 µM | GI50 [38] 3.46 µM | GI50 [39] 1.76 µM | GI50 [40] 1.71 µM | GI50 [41] > 18.8 µM | GI50 [42] 3.22 µM | GI50 [43] 2.48 µM | GI50 [44] 1.76 µM | GI50 [45] 2.82 µM | GI50 [46] 2.29 µM | GI50 [47] 2.37 µM | GI50 [48] 2.54 µM | GI50 [49] 5.05 µM | GI50 [50] 1.9 µM | GI50 [51] 2.44 µM | GI50 [52] 3.9 µM | GI50 [53] 1.89 µM | GI50 [54] 2.45 µM | GI50 [55] 1.44 µM | GI50 [56] 3.56 µM
4.15 µM: TGI [39]
11.1 µM: TGI [45]
5.37 µM: TGI [26]
> 16.1 µM: TGI [40]
23.2 µM: TGI [18]
2.37 µM: TGI [32]
> 47.1 µM: TGI [23]
> 53 µM: TGI [5]
5.91 µM: TGI [6]
6.93 µM: TGI [9]
15 µM: TGI [4]
13.9 µM: TGI [51]
3.67 µM: TGI [25]
49.1 µM: TGI [52]
6.7 µM: TGI [12]
5.49 µM: TGI [29]
11.8 µM: TGI [47]
4.9 µM: TGI [44]
> 43.9 µM: TGI [49]
2.96 µM: TGI [8]
5.55 µM: TGI [21]
6.64 µM: TGI [7]
> 57.3 µM: TGI [48]
> 68.7 µM: TGI [43]
7.97 µM: TGI [50]
20.2 µM: TGI [16]
3.78 µM: TGI [35]
> 45.1 µM: TGI [30]
41.1 µM: TGI [36]
> 35 µM: TGI [27]
2.36 µM: TGI [3]
24.5 µM: TGI [13]
3.11 µM: TGI [24]
4.39 µM: TGI [55]
> 75 µM: TGI [1] | TGI [10] | TGI [11] | TGI [15] | TGI [22] | TGI [34] | TGI [37] | TGI [38] | TGI [41] | TGI [46] | TGI [56]
> 27 µM: TGI [42]
> 26.1 µM: TGI [31]
4.08 µM: TGI [19]

COc1cc(-n2cc(-c3ccc(Cl)cc3)nc2SCc2cccc(C#N)c2)cc(OC)c1OC
48.1 µM: TGI [25]
9.77 µM: TGI [36]
74.7 µM: TGI [43]
92.5 µM: TGI [38]
56.9 µM: TGI [1]
86.5 µM: TGI [14]
> 100 µM: TGI [2] | TGI [3] | TGI [4] | TGI [5] | TGI [7] | TGI [8] | TGI [9] | TGI [10] | TGI [11] | TGI [12] | TGI [13] | TGI [15] | TGI [16] | TGI [17] | TGI [57] | TGI [18] | TGI [19] | TGI [20] | TGI [21] | TGI [22] | TGI [24] | TGI [26] | TGI [27] | TGI [28] | TGI [29] | TGI [30] | TGI [31] | TGI [32] | TGI [33] | TGI [34] | TGI [37] | TGI [40] | TGI [41] | TGI [42] | TGI [44] | TGI [45] | TGI [46] | TGI [47] | TGI [48] | TGI [49] | TGI [51] | TGI [52] | TGI [53] | TGI [54] | TGI [55] | TGI [56]
inactive: GI50 [1] 18.2 µM | GI50 [2] 48.1 µM | GI50 [3] 34.8 µM | GI50 [4] 54.9 µM | GI50 [5] 71.5 µM | GI50 [6] 18.9 µM | GI50 [7] 95.5 µM | GI50 [8] 21.9 µM | GI50 [9] 39.2 µM | GI50 [10] 48 µM | GI50 [11] 21.4 µM | GI50 [12] 37.5 µM | GI50 [13] 47 µM | GI50 [14] 18.8 µM | GI50 [15] 30.4 µM | GI50 [16] 41.3 µM | GI50 [17] 37.3 µM | GI50 [57] > 100 µM | GI50 [18] 30.5 µM | GI50 [19] > 100 µM | GI50 [20] > 100 µM | GI50 [21] 48.1 µM | GI50 [22] 46 µM | GI50 [24] > 100 µM | GI50 [25] 15.5 µM | GI50 [26] 54.1 µM | GI50 [27] 91.5 µM | GI50 [28] 50.3 µM | GI50 [29] > 100 µM | GI50 [30] 38.5 µM | GI50 [31] 51.3 µM | GI50 [32] > 100 µM | GI50 [33] 31.2 µM | GI50 [34] 60.4 µM | GI50 [36] 0.433 µM | GI50 [37] 94.7 µM | GI50 [38] 25.1 µM | GI50 [40] 82.9 µM | GI50 [41] > 100 µM | GI50 [42] > 100 µM | GI50 [43] 20.9 µM | GI50 [44] > 100 µM | GI50 [45] 44.1 µM | GI50 [46] > 100 µM | GI50 [47] 33.3 µM | GI50 [48] 34.2 µM | GI50 [49] 37.6 µM | GI50 [51] > 100 µM | GI50 [52] 37.5 µM | GI50 [53] > 100 µM | GI50 [54] 39.4 µM | GI50 [55] 73.5 µM | GI50 [56] > 100 µM
60.2 µM: TGI [6]
